For one data set, the target named is PL^Pro (Severe acute respiratory syndrome coronavirus 2, UniProt P0DTD1). Briefly: SARS-CoV-2 PLpro screening (Ac-LRGG-ACC substrate). Type of data set: biochemical. The note with it: read-out: PL^Pro (%inh)@10μM.
In the next data set the target is recombinant M^Pro (Severe acute respiratory syndrome coronavirus 2, UniProt P0DTD1). Put plainly: SARS-CoV-2 Mpro screening and IC50 determination (QS1 fluorogenic substrate, Drag assay). To be noted: for inhibition at 10 µM: read-out: M^Pro (%inh)@10μM. Type of data set: biochemical.
Another data set in a line: in vitro. The note with it: African monkey.
Data set [1] deals with Human Recombinant Cathepsin S (Homo sapiens, UniProt P25774). Put plainly: Cathepsin selectivity screening, Cat S (Z-Val-Val-Arg-AMC). Type of data set: biochemical. The note with it: Z-Val-Val-Arg-AMC substrate; Table 5; read-out: IC50 (μM) CatS.
The target in data set [2] is Human Recombinant Cathepsin B (Homo sapiens, UniProt P07858). Briefly: Cathepsin selectivity screening, Cat B (Z-Phe-Arg-AMC). Type of data set: biochemical. The note with it: Z-Phe-Arg-AMC substrate; Table 5; read-out: IC50 (μM) CatB.
For data set [3], the target named is Human Recombinant Cathepsin L (Homo sapiens, UniProt P07711). Put plainly: Cathepsin selectivity screening, Cat L (Z-Phe-Arg-AMC). Type of data set: biochemical. To be noted: Z-Phe-Arg-AMC substrate; Table 5; read-out: IC50 (μM) CatL.
In data set [4] the target is T1, Human Recombinant Cathepsin K (Homo sapiens, UniProt P43235).
T1 sequence (P43235 115-329): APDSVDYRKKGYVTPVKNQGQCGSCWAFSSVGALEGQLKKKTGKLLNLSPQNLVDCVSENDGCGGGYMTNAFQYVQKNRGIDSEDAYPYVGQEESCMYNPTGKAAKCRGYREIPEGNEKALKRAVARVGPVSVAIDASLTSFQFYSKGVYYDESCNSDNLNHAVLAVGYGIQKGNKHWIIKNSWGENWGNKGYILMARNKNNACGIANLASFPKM
Briefly: Cathepsin selectivity screening, Cat K (Z-Phe-Arg-AMC). Type of data set: biochemical. To be noted: Z-Phe-Arg-AMC substrate; Table 5; read-out: IC50 (μM) CatK.

Where [5] appears, read: M^Pro IC50 (μM), recombinant M^Pro, 20 μM QS1 (Ac-Abu-Tle-Leu-Gln-ACC) substrate, Table 1.
[6] abbreviates: recombinant M^Pro, 20 μM QS1 (Ac-Abu-Tle-Leu-Gln-ACC) substrate, Table 1, read-out: M^Pro IC50.

Read-outs that look alike come from different tables or passages of the source.

Chain of Human Recombinant Cathepsin S (P25774 115-331): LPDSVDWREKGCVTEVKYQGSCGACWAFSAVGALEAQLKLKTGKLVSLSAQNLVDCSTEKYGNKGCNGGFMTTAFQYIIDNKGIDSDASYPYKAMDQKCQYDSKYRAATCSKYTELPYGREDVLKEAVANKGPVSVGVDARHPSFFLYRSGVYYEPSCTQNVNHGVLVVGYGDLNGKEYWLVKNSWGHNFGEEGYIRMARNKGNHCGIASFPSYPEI
Chain of Human Recombinant Cathepsin L (P07711 114-333): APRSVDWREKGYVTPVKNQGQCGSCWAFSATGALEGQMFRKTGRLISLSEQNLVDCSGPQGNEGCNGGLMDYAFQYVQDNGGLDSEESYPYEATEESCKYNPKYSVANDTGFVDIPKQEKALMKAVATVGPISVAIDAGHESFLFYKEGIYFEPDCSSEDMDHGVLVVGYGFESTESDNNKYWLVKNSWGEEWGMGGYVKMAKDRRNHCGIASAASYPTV

What is called IC50 is the concentration needed to halve the response being measured. Consider `COc1cccc(-c2ccc(C(=O)N[C@@H](CC(C)C)C(=O)N[C@H](C#N)C[C@@H]3CCNC3=O)cc2)c1` [6e], for which the results for the inhibition at 10 µM on PL^Pro and at recombinant M^Pro were less than 50% and more than 95%, respectively. Moreover, the IC50 at recombinant M^Pro (M^Pro IC50 (μM), Table 2) was 0.786 µM; on recombinant M^Pro (setting [5]), 0.786 µM. In the data set “in vitro”, this compound registered a CC50 of more than 100 µM.
As to `COc1ccc(-c2ccc(C(=O)N[C@@H](CC(C)C)C(=O)N[C@H](C#N)C[C@@H]3CCNC3=O)cc2)cc1OC` [6f], the inhibition at 10 µM on PL^Pro is less than 50%; at recombinant M^Pro, more than 95%. Also, the IC50 at recombinant M^Pro (M^Pro IC50 (μM), Table 2) was 0.859 µM; at recombinant M^Pro (setting [5]), 0.859 µM. Besides, the CC50 in the data set “in vitro” was more than 100 µM.
Regarding `CC(C)C[C@H](NC(=O)c1ccc(-c2cccc3nn(C)cc23)cc1)C(=O)N[C@H](C#N)C[C@@H]1CCNC1=O` [6j], the inhibition at 10 µM on PL^Pro is less than 50%; at recombinant M^Pro it was more than 95%. Further, the IC50 at recombinant M^Pro (M^Pro IC50 (μM), Table 2) turned out to be 0.622 µM; on recombinant M^Pro (setting [5]) it was 0.622 µM. In the data set “in vitro”, the CC50 is more than 100 µM.
Turning to `CC(C)C[C@H](NC(=O)c1ccc(-c2ccc3c(cnn3C)c2)cc1)C(=O)N[C@H](C#N)C[C@@H]1CCNC1=O` [6l], the figures for the inhibition at 10 µM at PL^Pro and on recombinant M^Pro were less than 50% and more than 95%, respectively. In addition, the IC50 at recombinant M^Pro (read-out: M^Pro IC50, Table 2) was found to be 0.56 µM; on recombinant M^Pro (read-out: M^Pro IC50, recombinant M^Pro, 20 μM QS1 (Ac-Abu-Tle-Leu-Gln-ACC) substrate, Table 1), 0.56 µM. This compound came in with a CC50 in “in vitro” of more than 100 µM.
For the compound `CCC[C@H](NC(=O)c1ccc(-c2ccc(OC)cc2)cc1)C(=O)N[C@H](C#N)C[C@@H]1CCNC1=O` [12f], the inhibition at 10 µM on PL^Pro was less than 50%; at recombinant M^Pro, more than 95%. Moreover, the half-maximal inhibitory concentration (IC50) on recombinant M^Pro (setting [6]) is 5.48 µM.
For `CCC[C@H](NC(=O)c1ccc(-c2ccc(OC)c(OC)c2)cc1)C(=O)N[C@H](C#N)C[C@@H]1CCNC1=O` [12g], in that order: less than 50%, more than 95% and 9.55 µM.
The corresponding values for `CCC[C@H](NC(=O)c1ccc(-c2cncc(Cl)c2)cc1)C(=O)N[C@H](C#N)C[C@@H]1CCNC1=O` [12h] are less than 50%, more than 95% and 8.95 µM.
For `CCC[C@H](NC(=O)c1ccc(-c2cccc(OCC)c2)cc1)C(=O)N[C@H](C#N)C[C@@H]1CCNC1=O` [12i], in that order: less than 50%, more than 95% and 4.86 µM.
Turning to `CCC[C@H](NC(=O)c1ccc(-c2ccc(OC)nc2)cc1)C(=O)N[C@H](C#N)C[C@@H]1CCNC1=O` [12j], the values for the inhibition at 10 µM on PL^Pro and on recombinant M^Pro were less than 50% and less than 95%, respectively.
On to `COc1cccc(-c2ccc(C(=O)N[C@@H](CC3CCCCC3)C(=O)N[C@H](C#N)C[C@@H]3CCNC3=O)cc2)c1` [12k], for which the IC50 in data set [1] was 0.011 µM; at recombinant M^Pro (setting [5]), 2.01 µM; in data set [2], more than 10 µM; in data set [3], more than 10 µM; in data set [4], more than 10 µM. For the same compound, the inhibition at 10 µM on PL^Pro is less than 50%; on recombinant M^Pro it was less than 95%.
As for `COc1ccc(-c2ccc(C(=O)N[C@@H](CC3CCCCC3)C(=O)N[C@H](C#N)C[C@@H]3CCNC3=O)cc2)cc1` [12l], the IC50 in data set [1] was 0.006 µM; on recombinant M^Pro (setting [5]), 1.76 µM; in data set [2], more than 10 µM; in data set [3], more than 10 µM; in data set [4], 1.64 µM. Further, the inhibition at 10 µM at PL^Pro was less than 50%; at recombinant M^Pro, less than 95%.
On to `COc1ccc(-c2ccc(C(=O)N[C@@H](CC3CCCCC3)C(=O)N[C@H](C#N)C[C@@H]3CCNC3=O)cc2)cc1OC` [12m], for which the inhibition at 10 µM at PL^Pro is less than 50%; at recombinant M^Pro, less than 95%. Moreover, at recombinant M^Pro (setting [6]), the IC50 was 2.11 µM.
Regarding `Cn1cc2c(-c3ccc(C(=O)N[C@@H](CC4CCCCC4)C(=O)N[C@H](C#N)C[C@@H]4CCNC4=O)cc3)cccc2n1` [12n], the inhibition at 10 µM was less than 50% at PL^Pro and less than 95% at recombinant M^Pro. Also, the IC50 at recombinant M^Pro (setting [6]) stood at 1.28 µM.
The corresponding values for `N#C[C@H](C[C@@H]1CCNC1=O)NC(=O)[C@H](CC1CCCCC1)NC(=O)c1ccc(-c2cncc(Cl)c2)cc1` [12o] are less than 50%, less than 95% and 2.4 µM.

These data come from publication PMC12516390 (ACS Medicinal Chemistry Letters, 2025).
